From patent US20240166652A1, “MODULATORS OF THE INTEGRATED STRESS PATHWAY” (Calico Life Sciences LLC, priority 2017, published 2024)

System: ATF4 luciferase reporter in HEK293T cells
Experiment: ATF4-Luc assay (ATF4 luciferase reporter, tunicamycin-treated HEK293T cells)
Type: cell-based, human
Settings: Homo sapiens, HEK-293T; HEK293T cells carrying the ATF4 luciferase reporter, 1 μg/mL tunicamycin, 7 hours

| Structure (SMILES) | EC50 [nM] |
| --- | --- |
| O=C(COc1ccc(Cl)c(F)c1)NC12CCCC(NC(=O)COc3ccc(Cl)c(F)c3)(C1)C2 [Compound 179, N,N′-(bicyclo[3.1.1]heptane-1,5-diyl)bis[2-(4-chloro-3-fluorophenoxy)acetamide]] | > 2000 |
| O=C(COc1ccc(Cl)c(F)c1)NC12CCC(NC(=O)OCc3ccccc3)(C1)C2 [Compound 180, benzyl {4-[2-(4-chloro-3-fluorophenoxy)acetamido]bicyclo[2.1.1]hexan-1-yl}carbamate] | 50 to 250 |
| O=C(COc1ccc(Cl)c(F)c1)NC12CCCC(NC(=O)OCc3ccccc3)(C1)C2 [Compound 181, benzyl {5-[2-(4-chloro-3-fluorophenoxy)acetamido]bicyclo[3.1.1]heptan-1-yl}carbamate] | > 2000 |
| O=C(COc1ccc(Cl)c(F)c1)NC12CC(NC(=O)COc3ccn4nccc4n3)(C1)C2 [Compound 182, 2-(4-chloro-3-fluorophenoxy)-N-(3-{2-[(pyrazolo[1,5-a]pyrimidin-5-yl)oxy]acetamido}bicyclo[1.1.1]pentan-1-yl)acetamide] | > 2000 |
| O=C(COc1ccc(F)c(F)c1)NC12CC(NC(=O)COc3ccc(Cl)c(F)c3)(C1)C2 [Compound 183, 2-(4-chloro-3-fluorophenoxy)-N-{3-[2-(3,4-difluorophenoxy)acetamido]-bicyclo[1.1.1]pentan-1-yl}acetamide] | < 10 |
| Cc1n[nH]c2cc(OCC(=O)NC34CC(NC(=O)COc5ccc(Cl)c(F)c5)(C3)C4)ccc12 [Compound 184, 2-(4-chloro-3-fluorophenoxy)-N-(3-{2-[(3-methyl-1H-indazol-6-yl)oxy]acetamido}bicyclo[1.1.1]pentan-1-yl)acetamide] | 50 to 250 |
| O=C(COc1ccc(F)c(F)c1)NC12CC(NC(=O)COc3ccc(F)c(F)c3)(C1)C2 [Compound 185, N,N′-(bicyclo[1.1.1]pentane-1,3-diyl)bis[2-(3,4-difluorophenoxy)acetamide]] | 10 to 50 |
| O=C(COc1ccc(Cl)c(F)c1)NC12CC(NC(=O)COc3ccc(Cl)c(F)c3)(C1)C2 [Compound 186, N,N′-(bicyclo[1.1.1]pentane-1,3-diyl)bis[2-(4-chloro-3-fluorophenoxy)acetamide]] | < 10 |
| O=C(COc1ccc(Cl)c(F)c1)NC12CCC(NC(=O)COc3ccc4cn[nH]c4c3)(C1)C2 [Compound 187, 2-(4-chloro-3-fluorophenoxy)-N-(4-{2-[(1H-indazol-6-yl)oxy]acetamido}bicyclo[2.1.1]hexan-1-yl)acetamide] | 50 to 250 |
| O=C(COc1ccc(C(F)(F)F)nc1)NC12CCC(NC(=O)COc3ccc(Cl)c(F)c3)(C1)C2 [Compound 188, 2-(4-chloro-3-fluorophenoxy)-N-[4-(2-{[6-(trifluoromethyl)pyridin-3-yl]oxy}acetamido)bicyclo[2.1.1]hexan-1-yl]acetamide] | 50 to 250 |
| CC(C)(C)[Si](C)(C)OCCN(C(=O)COc1ccc(Cl)c(F)c1)C12CC(NC(=O)COc3ccc(Cl)c(F)c3)(C1)C2 [Compound 189, N-(2-{[tert-butyl(dimethyl)silyl]oxy}ethyl)-2-(4-chloro-3-fluorophenoxy)-N-{3-[2-(4-chloro-3-fluorophenoxy)acetamido]bicyclo[1.1.1]pentan-1-yl}acetamide] | 500 to 2000 |
| O=C(COc1ccc(Cl)c(F)c1)NC12CC(N(CCO)C(=O)COc3ccc(Cl)c(F)c3)(C1)C2 [Compound 190, 2-(4-chloro-3-fluorophenoxy)-N-{3-[2-(4-chloro-3-fluorophenoxy)acetamido]-bicyclo[1.1.1]pentan-1-yl}-N-(2-hydroxyethyl)acetamide] | 500 to 2000 |
| O=C(COc1ccc(Cl)c(F)c1)NC12CC(N(CCO)C(=O)COc3ccc(C(F)(F)F)nc3)(C1)C2 [Compound 191, N-{3-[2-(4-chloro-3-fluorophenoxy)acetamido]bicyclo[1.1.1]pentan-1-yl}-N-(2-hydroxyethyl)-2-{[6-(trifluoromethyl)pyridin-3-yl]oxy}acetamide] | 500 to 2000 |
| O=C(COc1ccc(Cl)c(F)c1)NC12CC(NC(=O)OCc3ccccc3)(C1)C2 [Compound 192, benzyl {3-[2-(4-chloro-3-fluorophenoxy)acetamido]bicyclo[1.1.1]pentan-1-yl}carbamate] | 500 to 2000 |
| O=C(COc1ccc(Cl)c(Cl)c1)NC12CCC(NC(=O)OCc3ccccc3)(C1)C2 [Compound 193, benzyl {4-[2-(3,4-dichlorophenoxy)acetamido]bicyclo[2.1.1]hexan-1-yl}carbamate] | > 2000 |
| O=C(COc1ccc(Cl)c(Cl)c1)NC12CCCC(NC(=O)OCc3ccccc3)(C1)C2 [Compound 194, benzyl {5-[2-(3,4-dichlorophenoxy)acetamido]bicyclo[3.1.1]heptan-1-yl}carbamate] | > 2000 |
| O=C(COc1ccc(Cl)c(Cl)c1)NC12CCC(NC(=O)COc3cc(F)c4cn[nH]c4c3)(C1)C2 [Compound 195, 2-(3,4-dichlorophenoxy)-N-(4-{2-[(4-fluoro-1H-indazol-6-yl)oxy]acetamido}-bicyclo[2.1.1]hexan-1-yl)acetamide] | 10 to 50 |
| O=C(COc1ccc(C(F)(F)F)nc1)NC12CCC(NC(=O)COc3ccc(Cl)c(Cl)c3)(C1)C2 [Compound 196, 2-(3,4-dichlorophenoxy)-N-[4-(2-{[6-(trifluoromethyl)pyridin-3-yl]oxy}acetamido)bicyclo[2.1.1]hexan-1-yl]acetamide] | 10 to 50 |

| Structure (SMILES) | EC50 [nM] |
| --- | --- |
| CN(C(=O)COc1ccc(Cl)c(Cl)c1)C12CC(NC(=O)COc3ccc(F)c(Cl)c3)(C1)C2 [Compound 197, N-{3-[2-(3-chloro-4-fluorophenoxy)acetamido]bicyclo[1.1.1]pentan-1-yl}-2-(3,4-dichlorophenoxy)-N-methylacetamide] | 50 to 250 |
| CN(C(=O)COc1ccc(Cl)c(Cl)c1)C12CC(NC(=O)COc3ccc(Cl)c(Cl)c3)(C1)C2 [Compound 198, 2-(3,4-dichlorophenoxy)-N-{3-[2-(3,4-dichlorophenoxy)acetamido]-bicyclo[1.1.1]pentan-1-yl}-N-methylacetamide] | 50 to 250 |
| CN(C(=O)COc1ccc(Cl)c(Cl)c1)C12CC(NC(=O)COc3ccc(Cl)cc3)(C1)C2 [Compound 199, N-{3-[2-(4-chlorophenoxy)acetamido]bicyclo[1.1.1]pentan-1-yl}-2-(3,4-dichlorophenoxy)-N-methylacetamide] | 50 to 250 |
| CN(CC(=O)NC12CC(NC(=O)COc3ccc(Cl)c(Cl)c3)(C1)C2)c1ccc(Cl)cc1 [Compound 200, N^2-(4-chlorophenyl)-N-{3-[2-(3,4-dichlorophenoxy)acetamido]-bicyclo[1.1.1]pentan-1-yl}-N^2-methylglycinamide] | > 2000 |
| CN(CC(=O)NC12CC(NC(=O)COc3ccc(Cl)c(F)c3)(C1)C2)c1ccc(Cl)cc1 [Compound 201, N-{3-[2-(4-chloro-3-fluorophenoxy)acetamido]bicyclo[1.1.1]pentan-1-yl}-N^2-(4-chlorophenyl)-N^2-methylglycinamide] | 500 to 2000 |
| CN(CC(=O)NC12CCC(NC(=O)COc3ccc(Cl)c(Cl)c3)(C1)C2)c1ccc(Cl)cc1 [Compound 202, N^2-(4-chlorophenyl)-N-{4-[2-(3,4-dichlorophenoxy)acetamido]-bicyclo[2.1.1]hexan-1-yl}-N^2-methylglycinamide] | > 2000 |
| O=C(CNc1ccc(Cl)cc1)NC12CC(NC(=O)COc3ccc(Cl)c(F)c3)(C1)C2 [Compound 203, N-{3-[2-(4-chloro-3-fluorophenoxy)acetamido]bicyclo[1.1.1]pentan-1-yl}-N^2-(4-chlorophenyl)glycinamide] | 50 to 250 |
| CN(CC(=O)NC12CC(NC(=O)COc3ccc(Cl)c(F)c3)(C1)C2)C(=O)c1ccc(Cl)cc1 [Compound 204, 4-chloro-N-[2-({3-[2-(4-chloro-3-fluorophenoxy)acetamido]-bicyclo[1.1.1]pentan-1-yl}amino)-2-oxoethyl]-N-methylbenzamide] | 500 to 2000 |
| CC(=O)N(CC(=O)NC12CC(NC(=O)COc3ccc(Cl)c(F)c3)(C1)C2)c1ccc(Cl)cc1 [Compound 205, M-acetyl-N-{3-[2-(4-chloro-3-fluorophenoxy)acetamido]bicyclo-[1.1.1]pentan-1-yl}-N^2-(4-chlorophenyl)glycinamide] | > 2000 |
| Cc1ccc(OCC(=O)NC23CC(NC(=O)COc4ccc(Cl)c(F)c4)(C2)C3)cn1 [Compound 206, 2-(4-chloro-3-fluorophenoxy)-N-(3-{2-[(6-methylpyridin-3-yl)oxy]acetamido}bicyclo[1.1.1]pentan-1-yl)acetamide] | 50 to 250 |
| O=C(COCc1ccccc1)NC12CC(NC(=O)COc3ccc(Cl)c(F)c3)(C1)C2 [Compound 207, 2-(benzyloxy)-N-{3-[2-(4-chloro-3-fluorophenoxy)acetamido]-bicyclo[1.1.1]pentan-1-yl}acetamide] | 50 to 250 |
| O=C(COCc1ccccc1)NC12CC(NC(=O)COc3ccc(Cl)cc3)(C1)C2 [Compound 208, 2-(benzyloxy)-N-{3-[2-(4-chlorophenoxy)acetamido]bicyclo[1.1.1]pentan-1-yl}acetamide] | 50 to 250 |
| O=C(COc1ccc(Cl)c(Cl)c1)NC12CCCC(NC(=O)COc3ccc(Cl)c(Cl)c3)(C1)C2 [Compound 209] | > 2000 |
| Cc1ccc(CC(=O)NC23CC(NC(=O)COc4ccc(Cl)c(F)c4)(C2)C3)cn1 [Compound 210, 2-(4-chloro-3-fluorophenoxy)-N-{3-[2-(6-methylpyridin-3-yl)acetamido]bicyclo[1.1.1]pentan-1-yl}acetamide] | > 2000 |
| O=C(COCc1ccc(C(=O)O)cc1)NC12CC(NC(=O)COc3ccc(Cl)c(F)c3)(C1)C2 [Compound 211] | > 2000 |
| O=C(COCc1cccc(C(=O)O)c1)NC12CC(NC(=O)COc3ccc(Cl)c(F)c3)(C1)C2 [Compound 212, 3-{[2-({3-[2-(4-chloro-3-fluorophenoxy)acetamido]bicyclo[1.1.1]pentan-1-yl}amino)-2-oxoethoxy]methyl}benzoic Acid] | > 2000 |
| O=C(COc1ccc(Cl)c(F)c1)NC12CC(NC(=O)COc3ccc(Cl)cn3)(C1)C2 [Compound 213, 2-(4-chloro-3-fluorophenoxy)-N-(3-{2-[(5-chloropyridin-2-yl)oxy]acetamido}bicyclo[1.1.1]pentan-1-yl)acetamide] | 50 to 250 |
